From US11814367B2, “Inhibitors of glycogen synthase 1 (GYS1) and methods of use thereof” (Maze Therapeutics, Inc., priority 2021, dated 2023)

How the values were obtained:
[1] = biological target: hGYS1 enzyme (recombinant hGYS1/GN1 protein) (Homo sapiens (Human), UniProt P13807); assay: GYS1 coupled enzyme assay (PK/LDH); assay type: biochemical; details: hGYS1/GN1 50 nM, UDP-Glucose 0.8 mM, G6P 1 mM; geometric mean of at least 2 runs
[2] = biological target: hGYS2 enzyme (recombinant hGYS2/GN1 protein) (Homo sapiens (Human), UniProt P54840); assay: GYS2 coupled enzyme assay (PK/LDH); assay type: biochemical; details: geometric mean of at least 2 assay runs on separate days, read-out: Avg_IC50
From the text: The GYS2 coupled enzyme assay is a kinetic biochemical assay that indirectly quantifies the rate of glycogen synthesis by coupling the conversion of GYS2 substrate UDP-glucose into UDP with downstream enzymatic reactions. UDP is released from UDP-glucose as glucose monomers are linked into the growing glycogen strand by GYS2. The coupled assay then proceeds with pyruvate kinase utilizing UDP and phospho(enol)pyruvate (PEP) to form pyruvate. Lactate dehydrogenase then converts pyruvate and NADH into lactate and NAD+. Oxidation of NADH to NAD+ can be measured continuously with a plate reader by quantifying the decrease in NADH absorbance at 340 nm over time.
Compounds that inhibit the hGYS2 enzyme and, subsequently, the downstream conversion of NADH to NAD+, were tested using assay ready plates (black, clear bottom 384 well plates) in a final DMSO reaction volume of 2.5% DMSO. The Assay Buffer contained 50 mM Tris pH 7.5, 2 mM MgCl2, and 100 mM KCl. Fresh stocks of BSA at a final concentration of 0.02% and TCEP 1 mM were added before splitting buffer into hGYS2 buffer and substrate buffer. To the hGYS2 buffer, rabbit liver glycogen was added at a final concentration of 0.2% glycogen. Glucose-6-Phosphate was added at 2 mM, recombinant hGYS2/GN1 protein was added at 200 nM to the substrate buffer, phosphoenolpyruvate (PEP) was added at 2 mM, UDP-Glucose was added at 2 mM, NADH was added at 0.6 mM, and Pyruvate Kinase/Lactate Dehydrogenase was added at 20 units/mL. The reaction was initiated by mixing hGYS2 buffer and substrate buffer at a 1:1 ratio. Both buffers were plated using a liquid dispensing device with hGYS2 buffer plated first followed by the substrate buffer. Plates were spun briefly to eliminate air bubbles and are immediately read in continuous mode at an absorbance of 340 nm, for 10 time points in one-minute increments, for a total of 10 minutes. The slope from these 10 time points was normalized to the positive and negative control wells. The duplicate % inhibition values are then averaged and fit to a Hill equation for dose response according to the Levenberg-Marquardt algorithm with the Hill equation maximum set to 100 and the minimum set to 0.
The results are shown in Table 4 below, which reports the IC50 of each compound. Unless otherwise specified, IC50 values are reported as the geometric mean of at least 2 assay runs on separate days. As shown in the table below, the compounds of the present invention are not potent inhibitors of human GYS2. Unless otherwise specified, IC50 values are reported as the geometric mean of at least two assay runs on separate days. Each run represents the average of a technical replicate, where each compound was assayed twice in the same plate. A superscript “#” symbol in Table 4 indicates results from a single assay run.

Sequence of hGYS1 enzyme (recombinant hGYS1/GN1 protein) (P13807 whole entry): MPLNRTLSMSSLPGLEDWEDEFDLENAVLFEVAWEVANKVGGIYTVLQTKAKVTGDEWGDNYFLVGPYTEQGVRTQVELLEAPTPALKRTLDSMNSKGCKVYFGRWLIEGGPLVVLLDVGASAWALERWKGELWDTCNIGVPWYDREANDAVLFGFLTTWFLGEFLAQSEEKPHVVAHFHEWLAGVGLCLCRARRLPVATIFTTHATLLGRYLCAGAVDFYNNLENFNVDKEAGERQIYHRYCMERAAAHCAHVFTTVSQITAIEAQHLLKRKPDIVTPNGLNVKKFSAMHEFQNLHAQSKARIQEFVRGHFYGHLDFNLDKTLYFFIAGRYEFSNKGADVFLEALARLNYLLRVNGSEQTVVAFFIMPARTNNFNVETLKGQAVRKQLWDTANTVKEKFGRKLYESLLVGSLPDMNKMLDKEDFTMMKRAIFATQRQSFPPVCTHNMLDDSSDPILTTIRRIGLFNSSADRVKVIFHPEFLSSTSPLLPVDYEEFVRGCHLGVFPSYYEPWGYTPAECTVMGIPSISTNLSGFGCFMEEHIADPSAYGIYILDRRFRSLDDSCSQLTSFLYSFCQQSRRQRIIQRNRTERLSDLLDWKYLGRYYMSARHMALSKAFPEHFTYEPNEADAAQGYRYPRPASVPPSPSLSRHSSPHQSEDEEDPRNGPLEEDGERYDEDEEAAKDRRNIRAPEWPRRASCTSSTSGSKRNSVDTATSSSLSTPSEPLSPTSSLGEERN
Sequence of hGYS1 enzyme (recombinant hGYS1/GN1 protein) (P46976 whole entry partner): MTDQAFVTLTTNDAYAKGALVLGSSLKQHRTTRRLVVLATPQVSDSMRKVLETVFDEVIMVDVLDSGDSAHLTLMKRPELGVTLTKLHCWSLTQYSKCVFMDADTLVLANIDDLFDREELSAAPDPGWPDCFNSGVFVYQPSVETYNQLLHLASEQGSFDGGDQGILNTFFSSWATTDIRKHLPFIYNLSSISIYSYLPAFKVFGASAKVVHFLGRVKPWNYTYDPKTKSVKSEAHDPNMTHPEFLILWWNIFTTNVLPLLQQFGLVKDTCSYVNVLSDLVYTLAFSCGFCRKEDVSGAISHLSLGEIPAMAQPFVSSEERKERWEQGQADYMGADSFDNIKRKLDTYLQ
Sequence of hGYS2 enzyme (recombinant hGYS2/GN1 protein) (P54840 whole entry): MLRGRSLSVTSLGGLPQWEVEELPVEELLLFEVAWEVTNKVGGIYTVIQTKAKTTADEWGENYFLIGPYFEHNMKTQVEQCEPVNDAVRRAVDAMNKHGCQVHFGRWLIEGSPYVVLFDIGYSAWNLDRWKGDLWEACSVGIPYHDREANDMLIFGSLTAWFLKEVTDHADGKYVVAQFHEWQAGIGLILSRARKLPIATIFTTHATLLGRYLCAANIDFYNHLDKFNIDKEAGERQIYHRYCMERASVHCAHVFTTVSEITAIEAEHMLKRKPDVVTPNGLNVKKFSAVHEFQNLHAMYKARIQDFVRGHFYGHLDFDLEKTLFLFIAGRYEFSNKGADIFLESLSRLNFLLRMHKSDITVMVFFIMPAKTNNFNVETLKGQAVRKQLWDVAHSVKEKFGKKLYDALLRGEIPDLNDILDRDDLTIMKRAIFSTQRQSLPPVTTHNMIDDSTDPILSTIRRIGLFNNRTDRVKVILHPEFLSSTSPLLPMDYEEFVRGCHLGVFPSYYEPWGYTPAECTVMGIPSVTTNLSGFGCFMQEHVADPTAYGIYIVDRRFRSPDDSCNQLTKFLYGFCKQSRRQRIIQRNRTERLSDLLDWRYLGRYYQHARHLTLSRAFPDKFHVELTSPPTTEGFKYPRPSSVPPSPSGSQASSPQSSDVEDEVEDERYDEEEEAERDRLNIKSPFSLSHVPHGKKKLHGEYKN
Sequence of hGYS2 enzyme (recombinant hGYS2/GN1 protein) (P46976 whole entry partner): as the sequence (P46976 whole entry partner) above

Row | SMILES | IC50 [1] [nM] | IC50 [2] [nM]
1 | Cc1cn(CC(=O)N2C[C@H](F)C[C@H]2C(=O)N[C@@H](c2ccccc2)c2ccc(C(C)C)c(F)n2)c(=O)n(C)c1=O (relative stereo) [Compound 777, (2S,4R)-1-[2-(3,5-dimethyl-2,4-dioxo-1,2,3,4-tetrahydropyrimidin-1-yl)acetyl]-4-fluoro-N-[(R*)-[6-fluoro-5-(propan-2-yl)pyridin-2-yl](phenyl)methyl] pyrrolidine-2-carboxamide] | 42 | > 100000
2 | CC(=O)N1CCC(C(=O)N2C[C@H](F)C[C@H]2C(=O)N[C@@H](c2ccccc2)c2ccc(C(C)C)cc2)CC1 [Compound 144, (2S,4R)-1-(1-acetylpiperidine-4-carbonyl)-4-fluoro-N-[(S)-phenyl[4-(propan-2-yl)phenyl]methyl]pyrrolidine-2-carboxamide] | 168 | > 100000
3 | Cc1cc([C@@H](NC(=O)[C@@H]2C[C@@H](F)CN2C(=O)Cc2cnn[nH]2)c2ccccc2)ccc1C1CC1 [Compound 665, (2S,4R)-N-[(S)-(4-cyclopropyl-3-methylphenyl) (phenyl)methyl]-4-fluoro-1-[2-(1H-1,2,3-triazol-5-yl)acetyl]pyrrolidine-2-carboxamide] | 99 | > 100000
4 | CC(C)c1ccc([C@@H](NC(=O)[C@@H]2C[C@@H](F)CN2C(=O)Cc2ccc(F)cn2)c2ccccc2)cc1 [Compound 36, (2S,4R)-4-fluoro-1-[2-(5-fluoropyridin-2-yl)acetyl]-N-[(S)-phenyl[4-(propan-2-yl)phenyl]methyl]pyrrolidine-2-carboxamide] | 73 | > 100000
5 | CC(=O)N1CCCC1CCC(=O)N1C[C@H](F)C[C@H]1C(=O)N[C@@H](c1ccccc1)c1ccc(C(C)C)cc1 (stereo partly drawn) [Compound 172, (2S,4R)-1-[3-(1-acetylpyrrolidin-2-yl)propanoyl]-4-fluoro-N-[(S)-phenyl[4-(propan-2-yl)phenyl]methyl]pyrrolidine-2-carboxamide] | 255 | > 100000
6 | CC(C)c1ccc([C@@H](NC(=O)[C@@H]2C[C@@H](F)CN2C(=O)CN2CCCCC2=O)c2ccccc2)cc1 [Compound 85, (2S,4R)-4-fluoro-1-[2-(2-oxopiperidin-1-yl)acetyl]-N-[(S)-phenyl[4-(propan-2-yl)phenyl]methyl]pyrrolidine-2-carboxamide] | 154 | > 100000
7 | CC(C)c1ccc([C@@H](NC(=O)[C@@H]2C[C@@H](F)CN2C(=O)Cc2noc3ccccc23)c2ccccc2)cc1 [Compound 119, (2S,4R)-1-[2-(1,2-benzoxazol-3-yl)acetyl]-4-fluoro-N-[(S)-phenyl[4-(propan-2-yl)phenyl]methyl]pyrrolidine-2-carboxamide] | 109 | > 100000
8 | CC(C)c1ccc([C@@H](NC(=O)[C@@H]2C[C@@H](F)CN2C(=O)CCCn2ccnc2)c2ccccc2)cc1 [Compound 75, (2S,4R)-4-fluoro-1-[4-(1H-imidazol-1-yl)butanoyl]-N-[(S)-phenyl[4-(propan-2-yl)phenyl]methyl]pyrrolidine-2-carboxamide] | 224 | > 100000
9 | CC(C)c1ccc([C@@H](NC(=O)[C@@H]2C[C@@H](F)CN2C(=O)C(C)(C)c2ncn[nH]2)c2ccccc2)cc1 [Compound 233, (2S,4R)-4-fluoro-1-[2-methyl-2-(1H-1,2,4-triazol-5-yl)propanoyl]-N-[(S)-phenyl[4-(propan-2-yl)phenyl]methyl]pyrrolidine-2-carboxamide] | 252 | > 100000
10 | CC(C)c1ccc([C@@H](NC(=O)[C@@H]2C[C@@H](F)CN2C(=O)C(C)n2ccnc2)c2ccccc2)cc1 (stereo partly drawn) [Compound 44, (2S,4R)-4-fluoro-1-[2-(1H-imidazol-1-yl)propanoyl]-N-[(S)-phenyl[4-(propan-2-yl)phenyl]methyl]pyrrolidine-2-carboxamide] | 106 | > 100000
11 | COc1cccc(CC(=O)N2C[C@H](F)C[C@H]2C(=O)N[C@@H](c2ccccc2)c2ccc(C(C)C)cc2)n1 [Compound 81, (2S,4R)-4-fluoro-1-[2-(6-methoxypyridin-2-yl)acetyl]-N-[(S)-phenyl[4-(propan-2-yl)phenyl]methyl]pyrrolidine-2-carboxamide] | 25 | > 100000
12 | O=C(N[C@@H](c1ccccc1)c1ccc(C2CC2)c(Cl)c1)[C@@H]1C[C@@H](F)CN1C(=O)Cc1cnn[nH]1 [Compound 664, (2S,4R)-N-[(S)-(3-chloro-4-cyclopropylphenyl) (phenyl)methyl]-4-fluoro-1-[2-(1H-1,2,3-triazol-5-yl)acetyl]pyrrolidine-2-carboxamide] | 115 | > 100000
13 | CC(=O)N1CCC[C@H]1C(=O)N[C@H](c1ccc(C(C)C)cc1)c1ccccc1C [Compound 640, (2S)-1-acetyl-N-[(R)-(2-methylphenyl)[4-(propan-2-yl)phenyl]methyl] pyrrolidine-2-carboxamide] | 1440 | > 100000
14 | CC(C)c1ccc([C@@H](NC(=O)[C@@H]2C[C@@H](F)CN2C(=O)Cn2ncc(N3CCNCC3)n2)c2ccccc2)cc1F [Compound 376, (2S,4R)-4-fluoro-N-[(S)-[3-fluoro-4-(propan-2-yl)phenyl](phenyl)methyl]-1-{2-[4-(piperazin-1-yl)-2H-1,2,3-triazol-2-yl]acetyl}pyrrolidine-2-carboxamide] | 8 | > 100000
15 | CC(=O)N1CCC2(CC1)CC2C(=O)N1C[C@H](F)C[C@H]1C(=O)N[C@@H](c1ccccc1)c1ccc(C(C)C)cc1 (stereo partly drawn) [Compound 174, (2S,4R)-1-{6-acetyl-6-azaspiro[2.5]octane-1-carbonyl}-4-fluoro-N-[(S)-phenyl[4-(propan-2-yl)phenyl]methyl]pyrrolidine-2-carboxamide] | 179 | > 100000
16 | Cc1noc(C)c1CC(=O)N1C[C@H](F)C[C@H]1C(=O)N[C@@H](c1ccccc1)c1ccc(C(C)C)cc1 [Compound 70, (2S,4R)-1-[2-(3,5-dimethyl-1,2-oxazol-4-yl)acetyl]-4-fluoro-N-[(S)-phenyl[4-(propan-2-yl)phenyl]methyl]pyrrolidine-2-carboxamide] | 50 | > 100000
17 | CC(C)c1ccc([C@@H](NC(=O)[C@@H]2[C@H]3C[C@H]3CN2C(=O)Cc2cnn[nH]2)c2ccccc2)cc1F [Compound 325, (1S,2S,5R)-N-[(S)-[3-fluoro-4-(propan-2-yl)phenyl](phenyl)methyl]-3-[2-(1H-1,2,3-triazol-5-yl)acetyl]-3-azabicyclo[3.1.0]hexane-2-carboxamide] | 75 | > 100000
18 | Cc1cnn(CC(=O)N2C[C@H](F)C[C@H]2C(=O)N[C@@H](c2ccccc2)c2ccc(C(C)C)cc2)c1 [Compound 56, (2S,4R)-4-fluoro-1-[2-(4-methyl-1H-pyrazol-1-yl)acetyl]-N-[(S)-phenyl[4-(propan-2-yl)phenyl]methyl]pyrrolidine-2-carboxamide] | 41 | > 100000
19 | CC(C)c1ccc([C@@H](NC(=O)[C@@H]2C[C@@H](F)CN2C(=O)CCC(=O)N2CCCC2)c2ccccc2)cc1 [Compound 108, (2S,4R)-4-fluoro-1-[4-oxo-4-(pyrrolidin-1-yl)butanoyl]-N-[(S)-phenyl[4-(propan-2-yl)phenyl]methyl]pyrrolidine-2-carboxamide] | 77 | > 100000
20 | CC(=O)N[C@@H](CC(N)=O)C(=O)N1C[C@H](F)C[C@H]1C(=O)N[C@@H](c1ccccc1)c1ccc(C(C)C)cc1 [Compound 208, (2S,4R)-1-[(2S)-3-carbamoyl-2-acetamidopropanoyl]-4-fluoro-N-[(S)-phenyl[4-(propan-2-yl)phenyl]methyl]pyrrolidine-2-carboxamide] | 113 | > 100000
21 | CC(C)c1ccc([C@@H](NC(=O)[C@@H]2C[C@@H](F)CN2C(=O)Cn2cccn2)c2ccccc2)nc1 [Compound 292, (2S,4R)-4-fluoro-N-[(S)-phenyl[5-(propan-2-yl)pyridin-2-yl]methyl]-1-[2-(1H-pyrazol-1-yl)acetyl]pyrrolidine-2-carboxamide] | 111 | > 100000
